Data from US20100166806A1, “Combination therapy comprising the use of protein kinase C modulators and Histone Deacetylase inhibitors for treating HIV-1 latency” (Aphios Corporation, priority 2008, published 2010).
Entries after “also recorded” stand apart in the source; their conditions may differ.

Tests used:
[1] = system: bryostatin-1-induced HIV-1 reactivation in Jurkat-LAT-GFP cells; test: Effect of PKC/MEK inhibitors on bryostatin-1-induced GFP expression in Jurkat-LAT-GFP cells; format: cell-based; details: Jurkat-LAT-GFP cells preincubated with inhibitor, then bryostatin-1 (10 nM) 6 h
Procedure: The primary interest in Bryostatins has been initiated by recognition of the potent antiproliferative effects against various tumour cells. Such effects have been related to the ability of Bryo-1 to modulate protein kinase C (PKC) activity by activating or degrading certain isoforms of PKC. Since PKC activation mediates different signal pathways that in turn activate the transcription of latent HIV-1, we preincubated Jurkat-LAT-GFP cells with medium or the chemical inhibitors Gö6976 (classical PKCs inhibitor), Gö66850 (classical and novel PKCs inhibitor), Gö6983 (pan-PKC inhibitor), rottlerin (PKCδ inhibitor) and PD98059 (MEK inhibitor) at effective concentrations.
Jurkat LAT-GFP cells were pretreated with the indicated inhibitors for 30 min at the indicated dose, and then stimulated with bryostatin-1 (10 nM) for 6 h. The percentage of GFP+ cells was measured by flow cytometry. Results, shown in FIG. 9, are represented as percentage of activation compared to cells treated with agonists in the absence of the chemical inhibitors (100% activation). The chemical inhibitors Gö6976 (classical PKCs inhibitor), Gö6850 (classical and novel PKCs inhibitor), Gö6983 (pan-PKC inhibitor), rottlerin (PKCδ inhibitor) and PD98059 (MEK inhibitor) were used at the indicated concentrations.

[2] = system: HIV-1 latency in Jurkat-LAT-GFP cells; test: HIV-1 reactivation in Jurkat-LAT-GFP cells (percentage of GFP+ cells by flow cytometry); format: cell-based; details: for HIV-1 reactivation: 10 nM
CXCR4 = test: Cell surface expression of CXCR4 on MT-2 cells by flow cytometry; format: cell-based, human
Procedure: (§1) This effect, shown in FIG. 12, is mediated though a PKC-dependent pathway and is not affected by the presence of VPA. MT-2 cells were treated with 10 nM of bryostatin in the presence or absence of either the PKC inhibitor Gö6850 or the HDAC inhibitor VPA for 24 h and the expression of CD4 and CXCR4 analysed. Cell surface expression of CD4 and CXCR4 antigens were measured by direct fluorescence using specific mAbs and analyzed by flow cytometry in an EPIC XL flow cytometer (Beckman-Coulter Inc. CA, USA). The anti-CXCR4 (clone 12G5, PE-labeled) was from BD Biosciences Pharmigen (San Diego, Calif., USA). The mAb anti-CD4 (clone 6D10, FITC-labelled) was from ImmunoTools (Friesoythe, Del.). Dual-Color Reagent Mouse IgG1/FITC+ Mouse IgG1/PE from DAKO (clone DAK-GO1 directed towards Aspergillus niger glucose oxidase) was used as negative control.

[3] = system: HIV-1 latent infected cells; details: three of four patients; VPA 500-750 mg twice a day; cited from earlier work
CD4 = test: Cell surface expression of CD4 on MT-2 cells by flow cytometry; format: cell-based, human
Procedure: as §1

[4] = cited from earlier work
IκBα = test: Western blot of IκBα phosphorylation and degradation (NF-κB pathway) in Jurkat-LAT-GFP cells; format: cell-based
Procedure: (§2) Jurkat-LAT-GFP cells were stimulated with increasing concentrations of bryostatin-1 and the phosphorylation and degradation of the NF-κB inhibitor Iκbα, and the phosphorylation (activation) of the MAPKs, ERK and JNK, were investigated by western blots using specific mAbs.
(§3) Jurkat LAT-GFP cells were incubated with either bryostatin-1 (1, 10, 25, 50 and 100 nM) or with prostratin (0.01, 0.05, 0.1, 0.5, 1 and 10 μM) for 10 min. IκBα phosphorylation and degradation, the phosphorylation status of MAPKs ERK 1+2 and JNK 1+2, and the steady state levels of total ERK 1+2 were analyzed using specific antibodies by western blots. Control and treated cells were washed with PBS and proteins extracted in 50 μl of lysis buffer (20 mM Hepes pH 8.0, 10 mM KCl, 0.15 mM EGTA, 0.15 mM EDTA, 0.5 mM Na3VO4, 5 mM NaFl, 1 mM DTT, leupeptin 1 μg/ml, pepstatin 0.5 μg/ml, aprotinin 0.5 μg/ml, and 1 mM PMSF) containing 0.5% NP-40. Protein concentration was determined by the Bradford assay (Bio-Rad, Richmond, Calif., USA) and thirty μg of proteins were boiled in Laemmli buffer and electrophoresed in 10% SDS/polyacrylamide gels. Separated proteins were transferred to nitrocellulose membranes (0.5 A at 100 V; 4° C.) for 1 h. […]

MAPKs ERK1+2 and JNK1+2 = test: Western blot of phosphorylation (activation) of MAPKs ERK and JNK in Jurkat-LAT-GFP cells; format: cell-based
Procedure: as §2, §3

HIVIIIB variant of HIV-1 = test: Virus-induced cytotoxicity assay (HIV-1-induced cell death in CEM-SS cells, XTT); format: cell-based
Procedure: The human T-lymphoblastic cell line CEM-SS was used as the target cell line and virus infections were performed using the HIVIIIB variant of HIV-1 (FIG. 13). Briefly, increasing concentrations of bryostatins (1, 2, 3 and AB) or 3TC (a known inhibitor of HIV RT) were incubated with 5,000 CEM-SS cells and HIVIIIB in a final volume of 200 μl/well at 37° C. for 6 days. After 6 days, 50 μl/well of XTT dye was added and the plate incubated for 4 hours at 37° C. The plate was then read at 450 nm with a reference at 630 nm and the percent CPE, percent inhibition, percent toxicity, effective concentration 50 (EC50), cytotoxic concentration (CC50) and the selective index (CC50/EC50) were calculated. Plates contained the following controls: media, cellular and viral.

[5] = MT-2 cells, 10 nM bryostatin, 24 h
[6] = increasing concentrations of bryostatin-1

CN(C)CCCn1cc(C2=C(c3c[nH]c4ccccc34)C(=O)NC2=O)c2ccccc21 [Gö6850]
Inhibition of GFP expression induced by Bryostatin-1 [1]: strongly inhibited

Cn1c2ccccc2c2c3c(c4c5ccccc5n(CCC#N)c4c21)CNC3=O [Gö6976]
Inhibition of GFP expression induced by Bryostatin-1 [1]: strongly inhibited

COc1ccc2c(c1)c(C1=C(c3c[nH]c4ccccc34)C(=O)NC1=O)cn2CCCN(C)C [Gö6983]
Inhibition of GFP expression induced by Bryostatin-1 [1]: strongly inhibited

COc1cccc(-c2cc(=O)c3ccccc3o2)c1N [PD98059]
Inhibition of GFP expression induced by Bryostatin-1 [1]: partially inhibited

CC(/C=C/C(=O)NO)=C\[C@@H](C)C(=O)c1ccc(N(C)C)cc1 [TSA, trichostatin A, reference compound]
Synergy with bryostatin-1 to antagonise HIV-1 latency [2]: synergises

CCCC(CCC)C(=O)O [Valproic acid, valproic acid, reference compound]
Synergy with bryostatin-1 to antagonise HIV-1 latency [2]: synergises
Effect of VPA on bryostatin-induced CXCR4 downregulation (CXCR4; [5]): not affected
Depletion of HIV-1 latent infected cells in patients [3]: significant depletion
Effect of VPA on bryostatin-induced CD4 downregulation (CD4; [5]): not affected

CCC/C=C/C=C/C(=O)O[C@H]1/C(=C/C(=O)OC)C[C@H]2C[C@H]([C@@H](C)O)OC(=O)C[C@H](O)C[C@@H]3C[C@H](OC(C)=O)C(C)(C)[C@](O)(C[C@@H]4C/C(=C/C(=O)OC)C[C@H](/C=C/C(C)(C)[C@]1(O)O2)O4)O3 [bryostatin-1]
HIV-1 reactivation in the presence of valproic acid [2]: can induce HIV-1 reactivation
HIV-1 reactivation ([2]; Jurkat-LAT-GFP cells): strongly induce HIV-1 reactivation; also recorded: fully reactivates HIV-1 latency
Potency to antagonize HIV-1 latency relative to prostratin ([2]; Jurkat-LAT-GFP cells, 6 h, versus prostratin): 100 Fold
HIV-1 reactivation (GFP+ cells) ([2]; bryostatin-1 100 nM, Jurkat-LAT-GFP cells): 87 % of GFP+ cells
Reduction of the bryostatin-1 concentration allowed by HDACs inhibitors ([2]; in combination with HDACs inhibitors): at least one order of magnitude
Tissue accumulation after i.v. injection [4]: accumulated in several tissues including lymph nodes and the gastrointestinal tract
IκBα phosphorylation and degradation (IκBα; 10 nM): does not induce
Phosphorylation and degradation of IκBα (IκBα; [6]): induced phosphorylation and degradation
Expression of HIV-1 receptor CXCR4 (CXCR4; 10 nM): downregulates
JNK activation (MAPKs ERK1+2 and JNK1+2; 10 nM): does not induce
Activation of the MAPKs ERK1+2 and JNK1+2 (MAPKs ERK1+2 and JNK1+2; [6]): in a concentration dependent manner
EC50 (HIVIIIB variant of HIV-1): 26 nM
Expression of HIV-1 receptor CD4 (CD4; 10 nM): downregulates

CCC/C=C/C=C/C(=O)O[C@H]1[C@H]2C=C3C[C@H]([C@@H](C)O)OC(=O)C[C@H](O)C[C@@H]4C[C@H](OC(C)=O)C(C)(C)[C@](O)(C[C@@H]5C/C(=C\C(=O)OC)C[C@H](/C=C/C(C)(C)[C@]1(OC(=O)C2)O3)O5)O4 [bryostatin-3]
HIV-1 reactivation ([2]; Jurkat-LAT-GFP cells): strongly induce HIV-1 reactivation

CC(=O)c1c(O)c(C)c(O)c(Cc2c(O)c3c(c(C(=O)/C=C/c4ccccc4)c2O)OC(C)(C)C=C3)c1O [rottlerin]
Inhibition of GFP expression induced by Bryostatin-1 [1]: did not affect

bryostatin-2
HIV-1 reactivation ([2]; Jurkat-LAT-GFP cells): strongly induce HIV-1 reactivation
